Results reported in US20150224164A1, “TREATMENT OF AUTISM SPECTRUM DISORDERS USING GLYCYL-L-2-METHYLPROLYL-L-GLUMATIC ACID” (Neuren Pharmaceuticals Limited, priority 2013, published 2015).
Where a SMILES comes first, the peptide text is derived from it.

Key:
MeCP2 deficient mice = test: Survival after oral administration (Example 11); format: in vivo, mouse; conditions: 20 or 80 mg/kg daily
Method: Therefore, we administer G-2-MePE orally to MeCP2 deficient mice as described in US 2009/0074865. Briefly, an aqueous solution, a water-in-oil emulsion (micro-emulsion, coarse emulsion or liquid crystal), or a gel composition containing a pharmaceutically effective amount of G-2-MePE (20 or 80 mg/kg per animal) is administered daily. In control MeCP2 deficient animals, we administer saline only, and wild-type animals are used to obtain baseline data similar to the design of studies described in Example 8 above.

central nervous system = conditions: after oral administration; cited from earlier work
Akt = test: Western blot of phosphorylated Akt; format: in vivo, mouse; conditions: fmr1 KO; 100 mg/kg 4 weeks; p<0.05
Method: Phosphorylated Extracellular Signal-Regulated Protein Kinase (ERK) and Protein Kinase B (Akt) expression was measured by Western blot analysis in lymphocytes from fmr1 KO and wild-type animals administered ether vehicle or G-2MePE (100 mg/kg, i.p.; 28 days) treated in the behavior experiments as previously described (Lopez Verrilli et al. 2009). ERK is a classical MAPK signal transduction protein, responsible for growth factor transduction, proliferation, cytokine response to stress and apoptosis. […]
To conduct the western blots, antibodies were used against Akt ( 1/1000) (Cell Signaling), ERK1/2 ( 1/2000) (Cell Signaling), antiphospho-Akt ( 1/1000) and antiphospho-ERK ( 1/2000) (Cell Signaling). Total Akt and ERK 1/2 protein content (phosphorylated) were evaluated by blotting membranes with antiphospho-Akt ( 1/1000) and antiphospho-ERK antibodies ( 1/2000) (Cell Signaling). Akt or ERK phosphorylation was normalized to protein content in the same sample and expressed as % of change with respect to basal conditions, considering basal levels as 100%. Protein loading was evaluated by stripping and re-blotting membranes with b-actin antibody ( 1/1000) (Sigma Chemical Co.). […]

[1] = Pharmacokinetics after intravenous bolus injection; format: in vivo, rat
Method: Adult male Wistar rats weighing between 180 and 240 g were used to determine the pharmacokinetics of GPE and G2MePE. To facilitate intravenous bolus injections and blood sampling, all rats were surgically implanted with an indwelling jugular venous cannula under halothane anesthesia three days before the experiment. Groups of six rats were given a single intravenous bolus injection of either 30 mg/kg GPE or 10 mg/kg G2MePE dissolved in 0.1M succinate buffer (pH 6.5). Blood samples (about 220 μl each) were collected into heparinized tubes containing Sigma protease inhibitor cocktail for mammalian tissues at 10 and 0 min before injection of either GPE or G2MePE, and 1, 2, 4, 8, 16, 32, 64 and 128 min after injection of either GPE or G2MePE. The samples were centrifuged at 3000 g for 15 min at 4° C. and the plasma removed and stored at −80° C. until extraction and assay by either radioimmunoassay (“RIA”) or reverse phase HPLC. The RIA and HPLC methods used were conventional.
The k and half-life (t1/2) were calculated from the slope of the linear regression line in the elimination phase of the semi-logarithmic plot of plasma concentration versus time as: Log C=−kt/2.3+log C0. Results were expressed as mean±standard error.

[2] = test system: layer 5 pyramidal neurons of motor cortex, MeCP2 knockout; test: Golgi staining, cortical spine density (Example 10); format: in vivo, mouse; conditions: P28 mice; knockout with treatment
Method: Samples (<1 cm) from P28 mice are fixed in 10% formalin and 3% potassium bichromate for 24 hours. Tissue is then transferred into 2% silver nitrate for 2 days in the dark at room temperature. Sections from these samples are then cut at 50 μm thickness into distilled water. Sections corresponding to motor cortex are mounted onto slides, air dried for 10 minutes, and then dehydrated through sequential rinses of 95% alcohol, 100% alcohol, and xylene, and then sealed with a coverslip. Images re acquired at 10× (whole cell) and 100× (spine imaging) using a Zeiss Pascal 5 Exciter confocal microscope. We use Golgi staining to label neurons sparsely and distinctly, and applied high-resolution confocal imaging to measure dendritic spine density and morphology in the labelled cells, restricting analysis to layer 5 pyramidal neurons in sections of motor cortex from critical period mice (P28). While low-magnification imaging clearly delineates the extent of the dendrites of the pyramidal cells we use higher magnifications to count synaptic contacts and determine the morphological class of each spine. We classify spines as either large and bulbous (“mushroom”, M), short and stubby (“stubby”, S), short and thin (“thin”, T) or filopodia (F).

[3] = Pharmacokinetic studies, plasma half-life; format: in vivo; conditions: rat
Method: The ability of the rats to remember or to relearn the original platform location was tested four weeks after original training. This means that residual drug would have been washed out for a minimum of 7 days in the case of the 3-week pumps, and 21 days in the case of the 1-week pumps. The retention testing procedure was identical to that of acquisition. Pharmacokinetic studies indicate that the plasma concentration of subcutaneously administered G-2-MePE rose to a peak and then declined with an approximately first order kinetic pattern, with a plasma half-life (t ½) of between about 30 and 60 minutes. Thus, by the time the retention study was performed, at least 7 days after removal of the G-2-MePE containing minipumps, nearly all of the G-2-MePE had been cleared from the animals' circulation.

MeCP2 knockout mice = test: Nocturnal locomotor activity (Example 10); format: in vivo, mouse; conditions: after 6 weeks; 20 mg/kg i.p. daily
Method: Spontaneous motor activity is measured by using an infrared beam-activated movement-monitoring chamber (Opto-Varimax-MiniA; Columbus Instruments, Columbus, Ohio). For each experiment, a mouse is placed in the chamber at least 3 h before recordings started. Movement is monitored during the normal 12-h dark cycle (7 p.m. to 7 a.m.). One dark cycle per animal per time point is collected.

Compound: C[C@@]1(C(=O)N[C@@H](CCC(=O)O)C(=O)O)CCCN1C(=O)CN [Example G-2-MePE, Glycyl-L-2-methylprolyl-L-glutamic acid] (HELM PEPTIDE1{G.[C[C@@]1(C(=O)[*:2])CCCN1[*:1]].E}$$$$V2.0)
- survival (MeCP2 deficient mice): survival is increased substantially
- activity in the central nervous system (central nervous system): active in the central nervous system
- Akt phosphorylation compared to total Akt (Akt): significant reduction in Akt phosphorylation
- maximal plasma concentration relative to GPE ([1]; G-2-MePE 10 mg/kg vs GPE 30 mg/kg i.v.): about 4.8 times
- t1/2 relative to GPE ([1]; i.v.): over 4 times
- half-life ([1]; male, Wistar, rat, plasma, iv, single i.v. bolus, GPE 30 mg/kg, G-2-MePE 10 mg/kg): 20.7 ± 0.35 min
- clearance ([1]; male, Wistar, rat, plasma, iv, single i.v. bolus, GPE 30 mg/kg, G-2-MePE 10 mg/kg, read-out: estimated clearance from plasma (converted)): 0.502 mL/min
- first order rate constant ([1]; single i.v. bolus, GPE 30 mg/kg, G-2-MePE 10 mg/kg): 0.033 ± 0.001 min⁻¹
- peak plasma concentration ([1]; single i.v. bolus, GPE 30 mg/kg, G-2-MePE 10 mg/kg, mean±standard error): 191 ± 16.1 µg/mL
- density of spines per unit branch [2]: largely ameliorated
- half-life ([3]; in vivo, read-out: plasma half-life in vivo): ~30 min
- half-life ([3]; sc, subcutaneously administered, read-out: plasma half-life (t 1/2)): 30 to 60 min
- nocturnal locomotor activity levels (MeCP2 knockout mice): elevates these levels
